# Literature values in patent US20070049498A1, “Agricultural compositions which enhance performance of herbicides” (priority 2005, published 2007).
# Settings: glyphosate in acid form
smiles,measurement,value
"O=C(O)CNCP(=O)(O)O [glyphosate, N-phosphonomethylglycine]",water solubility,about 1.2%
